Source: the supplement of paper PMC10307832

Assays:
Assay in all cases: relative viability (nuclei count vs DMSO), 5 days (fraction); higher = more cells survive
Kobe2602 + Olaparib = compound: C1=CC(=CC=C1NC(=S)NNC2=C(C=C(C=C2[N+](=O)[O-])C(F)(F)F)[N+](=O)[O-])F [Kobe2602] + O=C(c1cc(Cc2n[nH]c(=O)c3ccccc23)ccc1F)N1CCN(C(=O)C2CC2)CC1 [Olaparib] (partner 8 µM)
Outline: (§1)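 Lung cancer cell lines were pin-tool dosed in 1536-well plates on the day after seeding, with either a lone drug or a fixed anchor-drug dose plus five library-drug doses (not always all listed) in √10 steps. Nuclei were counted on 4× images after 5 days. Relative viability is the ratio of treated-well to vehicle-well nuclei counts, with each value a median of duplicate plates.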

[1] = compound: COc1cc2nccc(Oc3ccc(NC(=O)C4(C(=O)Nc5ccc(F)cc5)CC4)cc3)c2cc1OC [Cabozantinib] + CS(=O)(=O)N1CCN(Cc2cc3nc(-c4cccc5[nH]ncc45)nc(N4CCOCC4)c3s2)CC1 [Pictilisib] (partner 1 µM)
Outline: as §1

[2] = compound: COc1cc2nccc(Oc3ccc(NC(=O)C4(C(=O)Nc5ccc(F)cc5)CC4)cc3)c2cc1OC [Cabozantinib] + Nc1nc2[nH]cc(CCc3ccc(C(=O)N[C@@H](CCC(=O)O)C(=O)O)cc3)c2c(=O)[nH]1 [Pemetrexed] (partner 0.2 µM)
Outline: as §1

Zosuquidar + Trametinib = compound: O[C@@H](COc1cccc2ncccc12)CN1CCN([C@@H]2c3ccccc3[C@@H]3[C@H](c4ccccc42)C3(F)F)CC1 [Zosuquidar] + CC(=O)Nc1cccc(-n2c(=O)n(C3CC3)c(=O)c3c(Nc4ccc(I)cc4F)n(C)c(=O)c(C)c32)c1 [Trametinib] (partner 0.02 µM)
Outline: as §1

| Cell Line | relative viability (Kobe2602 + Olaparib; first compound 0.2 µM) | relative viability (Kobe2602 + Olaparib; first compound 0.6325 µM) | relative viability (Kobe2602 + Olaparib; first compound 2 µM) | relative viability (Kobe2602 + Olaparib; first compound 6.325 µM) | relative viability (Kobe2602 + Olaparib; first compound 20 µM) | relative viability ([1]; first compound 0.06325 µM) | relative viability ([1]; first compound 0.2 µM) | relative viability ([1]; first compound 0.6325 µM) | relative viability ([1]; first compound 2 µM) | relative viability ([2]; first compound 0.06325 µM) | relative viability ([2]; first compound 0.2 µM) | relative viability ([2]; first compound 0.6325 µM) | relative viability ([2]; first compound 2 µM) | relative viability (Zosuquidar + Trametinib; first compound 0.01 µM) | relative viability (Zosuquidar + Trametinib; first compound 0.1 µM) | relative viability (Zosuquidar + Trametinib; first compound 0.3162 µM) | relative viability (Zosuquidar + Trametinib; first compound 1 µM) | relative viability ([1]; first compound 0.02 µM) | relative viability ([2]; first compound 0.02 µM) | relative viability (Zosuquidar + Trametinib; first compound 0.03162 µM) |
| --- | --- | --- | --- | --- | --- | --- | --- | --- | --- | --- | --- | --- | --- | --- | --- | --- | --- | --- | --- | --- |
| NCI-H23 | 0.367 | 0.355 | 0.249 | 0.277 | 0.313 | 0.476 | 0.402 | 0.358 | 0.427 | 0.819 | 0.471 | 0.655 | 0.476 | 0.363 | 0.411 | 0.441 | 0.402 | – | – | – |
| NCI-H520 | 0.333 | 0.38 | 0.381 | 0.353 | 0.333 | 0.291 | 0.28 | 0.312 | 0.376 | 0.747 | 0.667 | 0.63 | 0.552 | 0.71 | 0.598 | 0.798 | 0.68 | 0.318 | 0.625 | 0.938 |
| NCI-H1395 | 0.447 | 0.487 | 0.463 | 0.535 | 0.486 | 0.644 | 0.609 | 0.675 | 0.689 | 1.03 | 0.924 | 0.714 | 0.824 | 1.05 | – | 1.05 | 1.07 | 0.657 | 0.699 | 1.01 |
| NCI-H2085 | 0.768 | 0.835 | 0.848 | 0.809 | 0.799 | 0.456 | 0.443 | 0.465 | 0.344 | 0.974 | 0.737 | 0.866 | 0.744 | 0.513 | – | 0.617 | 0.548 | 0.468 | 0.9 | 0.481 |
| NCI-H661 | 0.714 | 0.695 | 0.697 | 0.754 | 0.802 | 0.476 | 0.391 | 0.394 | 0.331 | 0.941 | 0.981 | 0.939 | 1.07 | 0.614 | 0.531 | 0.599 | 0.546 | 0.301 | 0.959 | 0.549 |
| NCI-H1944 | 0.475 | 0.385 | 0.403 | 0.432 | 0.403 | 0.367 | 0.369 | 0.34 | 0.342 | 0.645 | 0.631 | 0.637 | 0.696 | 0.418 | 0.389 | 0.429 | 0.388 | – | 0.601 | 0.393 |
| NCI-H2170 | 0.561 | 0.574 | 0.53 | 0.597 | 0.625 | 0.321 | 0.274 | 0.376 | 0.296 | 0.264 | 0.247 | 0.274 | 0.311 | 0.85 | 0.868 | 0.952 | 0.869 | 0.259 | 0.28 | 0.929 |
| NCI-H322M | 0.737 | 0.752 | 0.776 | 0.875 | 0.828 | 0.548 | – | 0.572 | 0.526 | 0.744 | 0.578 | 0.628 | 0.613 | 0.52 | 0.555 | 0.54 | 0.427 | 0.443 | 0.614 | 0.586 |
| LCLC-103H | 0.775 | 0.793 | 0.804 | 0.762 | 0.764 | 0.622 | 0.58 | 0.606 | 0.528 | 0.451 | 0.459 | 0.527 | 0.465 | 0.679 | 0.679 | 0.676 | 0.622 | 0.524 | 0.45 | 0.654 |
| NCI-H647 | 0.511 | 0.39 | 0.55 | 0.606 | 0.618 | 0.571 | 0.481 | 0.362 | 0.398 | 0.192 | 0.162 | 0.149 | 0.133 | 0.444 | 0.419 | 0.549 | 0.484 | 0.434 | 0.165 | 0.457 |
| NCI-H1792 | 0.372 | 0.556 | 0.398 | 0.253 | 0.566 | 0.318 | 0.301 | 0.293 | 0.268 | 1.27 | 0.868 | 0.986 | 0.608 | 0.522 | 0.41 | 0.535 | 0.421 | 0.334 | – | 0.427 |
| LK-2 | 0.619 | 0.766 | 0.875 | 0.596 | 0.796 | 0.632 | 0.565 | 0.625 | 0.588 | 0.427 | 0.236 | 0.266 | 0.296 | 0.822 | 0.735 | 0.825 | 0.89 | – | – | 0.794 |
| NCI-H1755 | 0.848 | 0.893 | 0.87 | 0.853 | 0.915 | 0.534 | 0.383 | 0.358 | 0.309 | 0.415 | 0.436 | 0.425 | 0.422 | 0.762 | 0.755 | 0.819 | 0.75 | 0.445 | 0.449 | 0.75 |
| EPLC-272H | 0.905 | 0.744 | 0.578 | 0.663 | 0.943 | 0.262 | 0.323 | 0.356 | 0.279 | 0.37 | 0.301 | 0.318 | 0.282 | 0.285 | 0.278 | 0.276 | 0.285 | 0.192 | 0.368 | 0.274 |
| NCI-H2228 | 0.738 | 0.576 | 0.689 | 0.593 | 0.629 | 0.544 | 0.551 | 0.455 | 0.331 | 0.305 | 0.338 | 0.283 | 0.276 | 0.438 | 0.423 | 0.57 | 0.505 | 0.539 | 0.348 | 0.441 |
